In data set [1] the test system is TTXs sodium channels (ND7/23 cells). Briefly: TTXs-sodium channel influx assay (fluorescence, membrane potential kit). It counts as cell-based, rat. Conditions: veratridine 100 μM. As for the experimental part:
ND7/23 rat dorsal root ganglion-derived cell line endogenously expresses a mixed population of TTXs sodium channels (such as Nav1.3, Nav1.2, Nav1.1, Nav1.6). These cells lack of TTXr sodium channels as shown by the absence of their respective transcripts. ND7/23 cells are grown in Dulbecco's Modified Eagle Medium (DMEM, Invitrogen, CA—USA) supplemented with 10% Foetal Bovine Serum (FBS, Invitrogen, CA—USA) and 1 mM sodium piruvate. The cells are seeded at 50,000 cells/well on 96 poly-L-lysine-coated plates and further incubated for 18-24 h before use.
The Membrane Potential Kit Assay (Molecular Devices, CA—USA), based on a negatively charged fluorescent dye able to monitor changes in membrane potential caused by the sodium influx due to the channel opening, is used for the assay.
Cells are incubated with the dye loading for 30 minutes at 25° C. Then, 100 nM of the toxin Anemonia sulcata (used as enhancer of the channel opener response) alone or in the presence of TTX (as reference standard) or test compound are added for further 15 minutes.
The fluorescence (excitation: 530 nm, emission: 565 nm wavelength) is measured before and after (40-45 s) the automated injection of the sodium channel opener veratridine (100 μM) using a Victor plate reader (Perkin Elmer, MA—USA).
The inhibition curves are calculated from 5 concentrations, each in triplicate, and the IC50 determined using a linear regression analysis.
The results, obtained with some compounds which are representative of the entire class of compounds of the invention are reported in Table 1.

Another data set deals with CYP2D6 (Homo sapiens (Human), UniProt P10635). Briefly: Inhibition of Cytochrome P4502D6 (CYP2D6) using Supersomes. It is filed as in vitro ADME. Conditions: AMMC substrate, read-out: IC50 (Fluorinated derivative). As for the experimental part: The inhibition of Cytochrome P4502D6 (CYP2D6) is assessed by performing in vitro inhibition studies using Supersomes, microsomes derived from baculovirus infected insect cells; the baculoviruses are engineered to express one or more drug metabolizing enzyme cDNAs. Supersomes catalyze the same enzymatic reactions as human liver microsome enzymes, but they contain much higher enzyme activity than other microsome sources (Crespi C. L. and Penman B. W., Advances Pharmacology, 43, 171-188 (1997); Crespi C. L. and Miller V. P., Analytical Biochemistry, 248, 188-190 (1997)).
Chain of CYP2D6 (P10635 whole entry): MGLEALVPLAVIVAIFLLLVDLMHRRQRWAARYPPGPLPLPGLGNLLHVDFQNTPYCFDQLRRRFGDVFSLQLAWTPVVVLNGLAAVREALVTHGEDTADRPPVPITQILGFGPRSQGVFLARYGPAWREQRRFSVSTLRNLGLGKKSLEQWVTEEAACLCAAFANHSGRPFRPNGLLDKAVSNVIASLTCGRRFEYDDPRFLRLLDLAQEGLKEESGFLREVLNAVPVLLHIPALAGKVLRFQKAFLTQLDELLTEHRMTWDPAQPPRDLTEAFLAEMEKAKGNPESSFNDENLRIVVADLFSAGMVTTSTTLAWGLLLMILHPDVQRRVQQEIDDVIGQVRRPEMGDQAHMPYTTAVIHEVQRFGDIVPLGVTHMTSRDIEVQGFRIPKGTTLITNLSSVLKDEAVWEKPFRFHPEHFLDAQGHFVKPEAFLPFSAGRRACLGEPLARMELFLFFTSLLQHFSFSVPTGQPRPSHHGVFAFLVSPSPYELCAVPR
Kits with Supersomes are Supplied by GENTEST (MA, USA).
Test compound is dissolved in DMSO 500× the highest final concentration desired in the IC50 assay. 30 ml of deionized water is pre-warmed to 37° C. and all kit components are placed on ice. For each well of column 1, 149.4 μL of NADPH-Cofactor Mix, (187.5 μl of Cofactors, 150 μl of G6PDH, 100 μl of Control Protein and 14.56 ml of 37° C. water) are added.
In each well from Column 2 to 12, 100 μl of Cofactor/DMSO mix (40 μL DMSO in 9.96 ml of NADPH-Cofactor Mix) are added. To each well of column 1, 0.6 μl of test compound or positive control are added. 50 μl from each well of column 1 are serially diluted to column 8. The extra 50 μl from column 8 are discarded. The plate is covered and pre-incubated at 37° C. for 10 minutes.
Preparation of enzyme/substrate mix: 7.92 ml of pre-warmed deionized water, 75 μl of enzyme, 3 μl of 10 mM AMMC and 2 ml of pre-warmed buffer are mixed.
After the pre-incubation time (10′), 100 μl of enzyme/substrate mix to each well from column 1 to 10 are added. The plate is incubated at 37° C. for 30 minutes. After this time, 75 μl of Stop Reagent to each well are added. For blank controls, 100 μl of enzyme/substrate mix are added to columns 11 and 12.
Plates are read at the Victor plate reader (Perkin Elmer, MA—USA) at 390 nm excitation and 460 nm emission wavelengths.

Where a name gives a salt, the structure may show the parent alone. Some results are limits rather than exact numbers.

As for `CCCCOc1cccc(C(F)(F)CNCC(=O)N(CCC)CCC)c1` [Example 1-3, 2-[2,2-Difluoro-2-(3-butoxyphenyl)-ethylamino]-N,N-dipropyl-acetamide, hydrochloride], the IC50 was found to be 0.58 µM in data set [1] and 23.9 µM on CYP2D6.
On the same counts, the results for `CCCCOc1cccc(C(F)(F)CN(CCCOC)CC(=O)N(C)C)c1` [Example 3-2, 2-{[2,2-Difluoro-2-(3-butoxyphenyl)-ethyl]-(3-methoxypropyl)-amino}-N,N-dimethyl-acetamide, hydrochloride] are 2.4 µM and above 40 µM.
With `CCCCCOc1cccc(C(F)(F)CNCC(=O)N(C)C)c1` [Example 1-2, 2-[2,2-Difluoro-2-(3-pentyloxyphenyl)-ethylamino]-N,N-dimethyl-acetamide, hydrochloride], the IC50 in data set [1] was 1.3 µM; at CYP2D6 it was above 40 µM.

The term IC50 denotes the concentration at which inhibition is half-maximal.

Source of the values: US9447029B2, “Fluorinated arylalkylaminocarboxamide derivatives” (NEWRON PHARMACEUTICALS S.P.A., priority 2011, dated 2016).
